Laboratory results taken from patent US4175125A, “Method for treating methicillin resistant staphylococcus aureus” (Eli Lilly and Company, priority 1978, dated 1979).
≈ marks a conversion by molar mass, not a printed value.

Experiments:
Type in all cases: cell-based
[1] = test system: Staphylococcus aureus cultures; assay: Broth dilution MIC in trypticase soy broth, low and high NaCl (Example 10); details: for MIC: Staphylococcus aureus, TSB, read-out: MIC
In short: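 MIC by broth dilution, in µg/ml, against Staphylococcus aureus cultures grown in trypticase soy broth containing either 0.5 percent or 5.0 percent NaCl. The high-salt condition serves to distinguish methicillin-resistant cultures.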

[2] = test system: Staphylococcus aureus cultures; assay: Agar dilution susceptibility test, phenylthioacetyl cephalosporins vs methicillin resistant S. aureus (Example 9); details: Staphylococcus aureus, read-out: MIC
In short: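 Agar dilution MIC, μg/mL, against Staphylococcus aureus isolates, inocula diluted to 10^3 bacteria per spot. Panel: penicillin-sensitive 3055 and penicillin-resistant H232 controls, methicillin-resistant clinical isolates, and laboratory-selected mutant 3136.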

[3] = test system: Staphylococcus aureus cultures; assay: Agar dilution MIC, Example 13 compound vs methicillin resistant Staphylococcus aureus; details: read-out: MIC
From the text: The table which follows gives the minimum inhibitory concentration (MIC) in micrograms of compound per milliliter of culture (μg/ml), in comparison with similar MIC values for the known antibiotics methicillin, cephalothin and cephaloridine against the same strains of bacteria.

[4] = culture 3130, table part marked b
[5] = culture 3130, table part marked c
[6] = culture 3131, table part marked b
[7] = culture 3131, table part marked c
[8] = culture 3134, table part marked b
[9] = culture 3134, table part marked c
[10] = culture 3135, table part marked b
[11] = culture 3135, table part marked c
[12] = culture 3136, table part marked b
[13] = culture 3136, table part marked c
[14] = culture 3137, table part marked b
[15] = culture 3137, table part marked c
[16] = culture 3138, table part marked b
[17] = culture 3138, table part marked c
[18] = culture 3139, table part marked b
[19] = culture 3139, table part marked c
[20] = culture (Seattle) 966, table part marked b
[21] = culture (Seattle) 966, table part marked c
[22] = culture S61, table part marked b
[23] = culture S61, table part marked c

COc1cccc(OC)c1C(=O)N[C@@H]1C(=O)N2[C@@H]1SC(C)(C)[C@@H]2C(=O)O [Methicillin, methicillin]
difference in MIC values in low versus high salt TSB cultures ([1]; 0.5 percent vs 5.0 percent NaCl, methicillin-resistant S. aureus): wide disparity in MIC values | MIC ([1]; culture 3055 (control), table part marked b): 2 µg/mL (≈ 5.26 µM) | MIC ([1]; culture 3055 (control), table part marked c): 2 µg/mL (≈ 5.26 µM) | MIC [1, 4]: 16 µg/mL (≈ 42.1 µM) | MIC [1, 5]: 64 µg/mL (≈ 168 µM) | MIC [1, 6]: 16 µg/mL (≈ 42.1 µM) | MIC [1, 7]: 128 µg/mL (≈ 336 µM) | MIC ([1]; culture 3132 (first column so headed), table part marked b): 32 µg/mL (≈ 84.1 µM) | MIC ([1]; culture 3132 (first column so headed), table part marked c): 64 µg/mL (≈ 168 µM) | MIC ([1]; culture 3132 (second column so headed), table part marked b): 8 µg/mL (≈ 21 µM) | MIC ([1]; culture 3132 (second column so headed), table part marked c): 128 µg/mL (≈ 336 µM) | MIC [1, 8]: 32 µg/mL (≈ 84.1 µM) | MIC [1, 9]: 64 µg/mL (≈ 168 µM) | MIC [1, 10]: 32 µg/mL (≈ 84.1 µM) | MIC [1, 11]: 64 µg/mL (≈ 168 µM) | MIC [1, 12]: 32 µg/mL (≈ 84.1 µM) | MIC [1, 13]: 128 µg/mL (≈ 336 µM) | MIC [1, 14]: > 128 µg/mL | MIC [1, 15]: > 128 µg/mL | MIC [1, 16]: 128 µg/mL (≈ 336 µM) | MIC [1, 17]: 128 µg/mL (≈ 336 µM) | MIC [1, 18]: 16 µg/mL (≈ 42.1 µM) | MIC [1, 19]: > 128 µg/mL | MIC [1, 20]: 8 µg/mL (≈ 21 µM) | MIC [1, 21]: 64 µg/mL (≈ 168 µM) | MIC ([1]; culture H232 (control), table part marked b): 4 µg/mL (≈ 10.5 µM) | MIC ([1]; culture H232 (control), table part marked c): 4 µg/mL (≈ 10.5 µM) | MIC ([1]; culture Kavarnick 1138501, table part marked b): 32 µg/mL (≈ 84.1 µM) | MIC ([1]; culture Kavarnick 1138501, table part marked c): 128 µg/mL (≈ 336 µM) | MIC [1, 22]: 16 µg/mL (≈ 42.1 µM) | MIC [1, 23]: 64 µg/mL (≈ 168 µM) | MIC ([1]; culture S, table part marked b): 16 µg/mL (≈ 42.1 µM) | MIC ([1]; culture S, table part marked c): 16 µg/mL (≈ 42.1 µM) | MIC ([2]; culture 3055 (control, benzylpenicillin sensitive), table part marked b): 1 µg/mL (≈ 2.63 µM) | MIC ([2]; culture 3055 (control, benzylpenicillin sensitive), table part marked c): 2 µg/mL (≈ 5.26 µM) | MIC [2, 4]: 8 µg/mL (≈ 21 µM) | MIC [2, 5]: 128 µg/mL (≈ 336 µM) | MIC [2, 6]: 8 µg/mL (≈ 21 µM) | MIC [2, 7]: 128 µg/mL (≈ 336 µM) | MIC ([2]; culture 3132, table part marked b): 8 µg/mL (≈ 21 µM) | MIC ([2]; culture 3132, table part marked c): 32 µg/mL (≈ 84.1 µM) | MIC ([2]; culture 3133, table part marked b): 8 µg/mL (≈ 21 µM) | MIC ([2]; culture 3133, table part marked c): 128 µg/mL (≈ 336 µM) | MIC [2, 8]: 16 µg/mL (≈ 42.1 µM) | MIC [2, 9]: 64 µg/mL (≈ 168 µM) | MIC [2, 10]: 8 µg/mL (≈ 21 µM) | MIC [2, 11]: 64 µg/mL (≈ 168 µM) | MIC [2, 12]: 8 µg/mL (≈ 21 µM) | MIC [2, 13]: 64 µg/mL (≈ 168 µM) | MIC [2, 14]: > 128 µg/mL | MIC [2, 15]: > 128 µg/mL | MIC [2, 16]: 16 µg/mL (≈ 42.1 µM) | MIC [2, 17]: > 128 µg/mL | MIC [2, 18]: 8 µg/mL (≈ 21 µM) | MIC [2, 19]: > 128 µg/mL | MIC [2, 20]: 8 µg/mL (≈ 21 µM) | MIC [2, 21]: 64 µg/mL (≈ 168 µM) | MIC ([2]; culture H232 (control, benzylpenicillin-resistant), table part marked b): 2 µg/mL (≈ 5.26 µM) | MIC ([2]; culture H232 (control, benzylpenicillin-resistant), table part marked c): 2 µg/mL (≈ 5.26 µM) | MIC ([2]; culture Kavarmark 1138501, table part marked b): 8 µg/mL (≈ 21 µM) | MIC ([2]; culture Kavarmark 1138501, table part marked c): 128 µg/mL (≈ 336 µM) | MIC [2, 22]: 8 µg/mL (≈ 21 µM) | MIC [2, 23]: 128 µg/mL (≈ 336 µM) | MIC ([3]; culture 3055 (control), Trypticase Soy Agar with 4.5% NaCl added (5% NaCl)): 1 µg/mL (≈ 2.63 µM) | MIC ([3]; culture 3055 (control), Trypticase Soy Agar, 0.5% NaCl): 1 µg/mL (≈ 2.63 µM) | MIC ([3]; culture 3130, Trypticase Soy Agar with 4.5% NaCl added (5% NaCl)): 16 µg/mL (≈ 42.1 µM) | MIC ([3]; culture 3130, Trypticase Soy Agar, 0.5% NaCl): 4 µg/mL (≈ 10.5 µM) | MIC ([3]; culture 3131, Trypticase Soy Agar with 4.5% NaCl added (5% NaCl)): 32 µg/mL (≈ 84.1 µM) | MIC ([3]; culture 3131, Trypticase Soy Agar, 0.5% NaCl): 4 µg/mL (≈ 10.5 µM) | MIC ([3]; culture 3132, Trypticase Soy Agar with 4.5% NaCl added (5% NaCl)): 8 µg/mL (≈ 21 µM) | MIC ([3]; culture 3132, Trypticase Soy Agar, 0.5% NaCl): 4 µg/mL (≈ 10.5 µM) | MIC ([3]; culture 3133, Trypticase Soy Agar with 4.5% NaCl added (5% NaCl)): 2 µg/mL (≈ 5.26 µM) | MIC ([3]; culture 3133, Trypticase Soy Agar, 0.5% NaCl): 2 µg/mL (≈ 5.26 µM) | MIC ([3]; culture 3134, Trypticase Soy Agar with 4.5% NaCl added (5% NaCl)): 32 µg/mL (≈ 84.1 µM) | MIC ([3]; culture 3134, Trypticase Soy Agar, 0.5% NaCl): 8 µg/mL (≈ 21 µM) | MIC ([3]; culture 3135, Trypticase Soy Agar with 4.5% NaCl added (5% NaCl)): 32 µg/mL (≈ 84.1 µM) | MIC ([3]; culture 3135, Trypticase Soy Agar, 0.5% NaCl): 4 µg/mL (≈ 10.5 µM) | MIC ([3]; culture 3136, Trypticase Soy Agar with 4.5% NaCl added (5% NaCl)): 64 µg/mL (≈ 168 µM) | MIC ([3]; culture 3136, Trypticase Soy Agar, 0.5% NaCl): 4 µg/mL (≈ 10.5 µM) | MIC ([3]; culture 3137, Trypticase Soy Agar with 4.5% NaCl added (5% NaCl)): 64 µg/mL (≈ 168 µM) | MIC ([3]; culture 3137, Trypticase Soy Agar, 0.5% NaCl): 8 µg/mL (≈ 21 µM) | MIC ([3]; culture 3138, Trypticase Soy Agar with 4.5% NaCl added (5% NaCl)): 32 µg/mL (≈ 84.1 µM) | MIC ([3]; culture 3138, Trypticase Soy Agar, 0.5% NaCl): 8 µg/mL (≈ 21 µM) | MIC ([3]; culture 3139, Trypticase Soy Agar with 4.5% NaCl added (5% NaCl)): 1 µg/mL (≈ 2.63 µM) | MIC ([3]; culture 3139, Trypticase Soy Agar, 0.5% NaCl): 2 µg/mL (≈ 5.26 µM) | MIC ([3]; culture H232 (control), Trypticase Soy Agar with 4.5% NaCl added (5% NaCl)): 1 µg/mL (≈ 2.63 µM) | MIC ([3]; culture H232 (control), Trypticase Soy Agar, 0.5% NaCl): 2 µg/mL (≈ 5.26 µM) | MIC ([3]; culture Havarmak 1136501, Trypticase Soy Agar with 4.5% NaCl added (5% NaCl)): 64 µg/mL (≈ 168 µM) | MIC ([3]; culture Havarmak 1136501, Trypticase Soy Agar, 0.5% NaCl): 8 µg/mL (≈ 21 µM) | MIC ([3]; culture S 61, Trypticase Soy Agar with 4.5% NaCl added (5% NaCl)): 32 µg/mL (≈ 84.1 µM) | MIC ([3]; culture S 61, Trypticase Soy Agar, 0.5% NaCl): 4 µg/mL (≈ 10.5 µM) | MIC ([3]; culture Seattle 966, Trypticase Soy Agar with 4.5% NaCl added (5% NaCl)): 16 µg/mL (≈ 42.1 µM) | MIC ([3]; culture Seattle 966, Trypticase Soy Agar, 0.5% NaCl): 4 µg/mL (≈ 10.5 µM)
